The IC50 is the midpoint of a concentration-inhibition curve.

IC50 data for two compounds are collected here from patent US10676433B2, “Indole derivatives and their use in neurodegenerative diseases” (Merck Patent GmbH, priority 2014, dated 2020).

This test addresses human P2X7 receptor (Homo sapiens (Human), UniProt Q99572). Description: Pore permeation assay (YO PRO dye uptake). It is filed as cell-based. The conditions noted are these: HEK293 transfected with human P2X7 receptor, BzATP 10 uM, read-out: hP2X7 IC50. On the procedure:
Agonist-induced pore formation was determined by measuring cellular uptake of YO PRO fluorescence dye in HEK293 transfected with human P2X7 receptor. A HEK293 cell over expressing human P2X7 was harvested using HQTase reagent to detach the cells from T75 cm flask. The harvested cells are centrifuged @ 1200 rpm for 5 min at room temperature. The viability of cells was determined by Trypan blue dye and the cells are plated @ 10,000 cell/well in 50 ul volume in a 384W BD Poly lysine coated plate and incubated overnight at 37 C. […] The plate was centrifuged at 1000 rpm for 5 seconds and incubated at room temperature for 30 minutes. The uptake of YO PRO dye into the cells was measured using Envision Fluorescence plate reader instrument (Perkin Elmer).

Chain of human P2X7 receptor (Q99572 whole entry): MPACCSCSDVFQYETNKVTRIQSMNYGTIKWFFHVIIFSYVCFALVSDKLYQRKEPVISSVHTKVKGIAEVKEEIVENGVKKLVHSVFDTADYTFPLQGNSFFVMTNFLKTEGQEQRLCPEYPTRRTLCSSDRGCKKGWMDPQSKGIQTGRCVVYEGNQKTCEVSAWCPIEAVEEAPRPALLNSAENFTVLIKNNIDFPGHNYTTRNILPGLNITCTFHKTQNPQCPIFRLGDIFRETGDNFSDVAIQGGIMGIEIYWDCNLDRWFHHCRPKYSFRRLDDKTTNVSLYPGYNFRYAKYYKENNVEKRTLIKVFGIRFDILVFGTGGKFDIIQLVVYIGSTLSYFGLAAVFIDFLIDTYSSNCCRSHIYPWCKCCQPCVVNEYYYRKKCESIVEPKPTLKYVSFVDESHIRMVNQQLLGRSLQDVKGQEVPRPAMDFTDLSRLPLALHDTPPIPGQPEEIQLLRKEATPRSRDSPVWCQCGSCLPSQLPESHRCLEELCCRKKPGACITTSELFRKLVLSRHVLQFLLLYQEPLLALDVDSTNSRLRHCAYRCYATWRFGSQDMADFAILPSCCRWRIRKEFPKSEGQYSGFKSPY

Turning to `CC(O)(CNC(=O)c1cn(C2CCOC2)c2cccc(Cl)c12)C1CCCC1` (centres unmarked) [Compound 102, 4-Chloro-1-(tetrahydro-furan-3-yl)-1H-indole-3-carboxylic acid (2-cyclopentyl-2-hydroxy-propyl)-amide], the IC50 was more than 1000 nM.

In the case of “4-Chloro-1-oxetan-3-yl-1H-indole-3-carboxylic acid (2,2-difluoro-ethyl)-amide [Compound 76]”, the IC50 is more than 1000 nM.
